Assay results from US8901315B2, “Thienopyrazole derivative having PDE7 inhibitory activity” (Daiichi Sankyo Company, Limited, priority 2004, dated 2014).
Counter-ions that a name gives are not always drawn.

Legend:
[1] = molecular target: PDE 4 (phosphodiesterase IV); experiment: PDE 4 inhibiting effect (3H-cAMP hydrolysis, PDE 4 active fraction from Balb/c mouse liver); type: biochemical; conditions: PDE 4 fraction from Balb/c mice liver, 0.064 μM cAMP, 2 hours at 25° C.; read-out: PDE4 IC50
Protocol: Methods for Evaluating the PDE 4 Inhibiting Effect
The PDE 4 (phosphodiesterase IV) inhibiting effect of the compounds of the present invention was performed by the following method, which was modified assay method described in Biochemical. […] That is, the livers obtained from three Balb/c mice (male, 12 weeks: obtainable from CLEA Japan, Inc.) were suspended with 30 mL of buffer solution B [20 mM of bis-tris, 5 mM of 2-mercaptoethanol, 2 mM of benzamidine, 2 mM of EDTA, 0.1 mM of 4-(2-aminoethyl)benzenesulfonyl hydrochloride, 50 mM of sodium acetate; pH 6.5], then homogenized by Polytron® homogenizer. The homogenate were centrifuged under 25,000×G for 10 minutes at 4° C. The supernatant was separated and thus obtained supernatant was further centrifuged under 100,000×G for 60 minutes at 4° C., and then filtrated with 0.2 μm filter to obtain the soluble fraction. • (2) The obtained soluble fraction was filled in equilibrium DEAE sepharose column (1×10 cm) with buffer solution B, and phosphodiesterase fractions were eluted by 120 mL of buffer solution B with linear gradient from 0.05 to 1M sodium acetate concentration. 5 mL each of 24 eluents were collected, and each eluents were examined for cyclic AMP metabolic activities of phosphodiesterase. […] After the reaction, suspension of Sephadex®-QAE in 10 mM of HEPES-Na (pH 7.0) was added to the reaction mixture, and the mixture was left at rest for 5 minutes.

[2] = molecular target: PDE 7 (phosphodiesterase VII) (Homo sapiens (Human), UniProt Q13946); experiment: PDE 7 inhibiting effect (3H-cAMP hydrolysis, PDE 7 active fraction from MOLT-4 cells); type: biochemical; conditions: PDE 7 fraction from MOLT-4 cells, 0.064 μM cAMP, 10 μM rolipram, 2 hours at 25° C.; read-out: PDE7 IC50
PDE 7 (phosphodiesterase VII), sequence (Q13946 whole entry): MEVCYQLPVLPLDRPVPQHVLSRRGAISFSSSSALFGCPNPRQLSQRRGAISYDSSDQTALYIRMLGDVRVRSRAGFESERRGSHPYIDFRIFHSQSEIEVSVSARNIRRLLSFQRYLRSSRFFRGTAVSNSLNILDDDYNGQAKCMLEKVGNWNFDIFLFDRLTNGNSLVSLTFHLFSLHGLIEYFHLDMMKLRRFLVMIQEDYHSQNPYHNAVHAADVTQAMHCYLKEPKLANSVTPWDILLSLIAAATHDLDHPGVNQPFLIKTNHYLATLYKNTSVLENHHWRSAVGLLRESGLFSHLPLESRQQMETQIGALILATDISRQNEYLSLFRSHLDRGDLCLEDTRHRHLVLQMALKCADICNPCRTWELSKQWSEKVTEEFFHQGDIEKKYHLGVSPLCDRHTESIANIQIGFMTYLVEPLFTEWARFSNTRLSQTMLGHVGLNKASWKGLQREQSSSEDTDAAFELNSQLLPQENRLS
Protocol: Methods for Evaluating the PDE 7 Inhibiting Effect
The PDE 7 (phosphodiesterase VII) inhibiting effect of the compounds of the present invention was performed by the following method, which was modified assay method described in Biochemical. Pharmacol. 48(6), 1219-1223 (1994). • (1) The active fraction of PDE 7 (phosphodiesterase VII) was obtained. That is, MOLT-4 (obtainable from ATCC as ATCC No. CRL-1582), which was cell line of human acute lymphoblastic lymphoma T cells, was incubated in RPMI1640 culture medium containing 10% fetal bovine serum to obtain 5×10^8 MOLT-4 cells. The cells were collected by centrifugation and suspended with 10 mL of buffer solution A [25 mM of tris-HCl, 5 mM of 2-mercaptoethanol, 2 mM of benzamidine, 2 mM of EDTA, 0.1 mM of 4-(2-aminoethyl)benzenesulfonyl hydrochloride; pH 7.5], then homogenized by Polytron® homogenizer. The homogenate were centrifuged under 25,000×G for 10 minutes at 4° C. The supernatant was separated and thus obtained supernatant was further centrifuged under 100,000×G for 60 minutes at 4° C., and then filtrated with 0.2 μm filter to obtain the soluble fraction. • (2) The obtained soluble fraction was filled in equilibrium HiTrap Q column (5 mL×2) with buffer solution A, and phosphodiesterase fractions were eluted by 300 mL of buffer solution A with linear gradient from 0 to 0.8 M NaCl concentration. 5 mL each of 60 eluents were collected, and each eluents were examined for cyclic AMP metabolic activities of phosphodiesterase. […] After the reaction, suspension of Sephadex®-QAE in 10 mM of HEPES-Na (pH 7.0) was added to the reaction mixture, and the mixture was left at rest for 5 minutes.

SMILES | IC50 [1] [nM] | IC50 [2] [nM]
Cc1nn(C2CCCCC2)c2sc(C(=O)Nc3ccc(C(=O)N(C)C)cc3)cc12 [Example 39, 1-Cyclohexyl-N-{4-[(dimethylamino)carbonyl]phenyl}-3-methyl-1H-thieno[2,3-c]pyrazole-5-carboxamide] | 3500 | 14
CCOC(=O)c1ccc(NC(=O)c2cc3c(C)nn(C4CCCCC4)c3s2)cc1 [Example 40, Ethyl 4-{[(1-cyclohexyl-3-methyl-1H-thieno[2,3-c]pyrazol-5-yl)-carbonyl]amino}benzoate] | 15000 | 75
Cc1nn(C2CCCCC2)c2sc(C(=O)Nc3ccc(C(=O)NC(C)C)cc3)cc12 [Example 45, 1-Cyclohexyl-N-{4-[(isopropylamino)carbonyl]phenyl}-3-methyl-1H-thieno[2,3-c]pyrazole-5-carboxamide] | 12000 | 50
Cc1nn(C2CCCCC2)c2sc(C(=O)Nc3ccc(C(=O)NCCO)cc3)cc12 [Example 46, 1-Cyclohexyl-N-(4-{[(2-hydroxyethyl)amino]carbonyl}phenyl)-3-methyl-1H-thieno[2,3-c]pyrazole-5-carboxamide] | 2000 | 30
Cc1nn(C2CCCCC2)c2sc(C(=O)Nc3ccc(C(=O)NC(C)(C)C)cc3)cc12 [Example 51, N-{4-[(tert-Butylamino)carbonyl]phenyl}-1-cyclohexyl-3-methyl-1H-thieno[2,3-c]pyrazole-5-carboxamide] | 9500 | 75
Cc1nn(C2CCCCC2)c2sc(C(=O)Nc3ccc(NC=O)cc3)cc12 [Example 53, 1-Cyclohexyl-N-[4-(formylamino)phenyl]-3-methyl-1H-thieno[2,3-c]pyrazole-5-carboxamide] | 3500 | 55
Cc1nn(C2CCCCC2)c2sc(C(=O)Nc3ccc4c(c3)CCN4C(=O)C3CC3)cc12 [Example 58, 1-Cyclohexyl-N-[1-(cyclopropylcarbonyl)-2,3-dihydro-1H-indol-5-yl]-3-methyl-1H-thieno[2,3-c]pyrazole-5-carboxamide] | 3600 | 36
Cc1nn(C2CCCCC2)c2sc(C(=O)Nc3ccc4c(c3)CCN4S(C)(=O)=O)cc12 [Example 59, 1-Cyclohexyl-3-methyl-N-[1-(methylsulfonyl)-2,3-dihydro-1H-indol-5-yl]-1H-thieno[2,3-c]pyrazole-5-carboxamide] | 7000 | 80
CC(=O)n1ccc2cc(NC(=O)c3cc4c(C)nn(C5CCCCC5)c4s3)ccc21 [Example 60, N-(1-Acetyl-1H-indol-5-yl)-1-cyclohexyl-3-methyl-1H-thieno[2,3-c]pyrazole-5-carboxamide] | 6500 | 65
CNC(=O)COc1ccc(NC(=O)c2cc3c(C)nn(C4CCCCC4)c3s2)cc1 [Example 67] | 3500 | 23
Cc1nn(C2CCCCC2)c2sc(C(=O)Nc3ccc(N4CCNCC4)cc3)cc12 [Example 72, 1-Cyclohexyl-3-methyl-N-[4-(1-piperazinyl)phenyl]-1H-thieno[2,3-c]pyrazole-5-carboxamide HCl salt] | 1200 | 10
CC(=O)N1CCN(c2ccc(NC(=O)c3cc4c(C)nn(C5CCCCC5)c4s3)cc2)CC1 [Example 73, N-[4-(4-Acetyl-1-piperazinyl)phenyl]-1-cyclohexyl-3-methyl-1H-thieno[2,3-c]pyrazole-5-carboxamide] | 1000 | 12
Cc1nn(C2CCCCC2)c2sc(C(=O)N[C@H]3CC[C@H](O)CC3)cc12 [Example 74, 1-Cyclohexyl-N-(trans-hydroxycyclohexyl)-3-methyl-1H-thieno[2,3-c]pyrazole-5-carboxamide] | 7000 | 50
Cc1nn(C2CCCCC2)c2sc(C(=O)Nc3ccc(OCC(=O)N4CCN(C)CC4)cc3)cc12 [Example 76, 1-Cyclohexyl-3-methyl-N-{4-[2-(4-methyl-1-piperazinyl)-2-oxoethexy]-phenyl}-1H-thieno[2,3-c]pyrazole-5-carboxamide] | 2000 | 20
Cc1nn(C2CCCCC2)c2sc(C(=O)Nc3ccc(OCC(=O)N(C)C)cc3)cc12 [Example 77, 1-Cyclohexyl-N-{4-[2-(dimethylamino)-2-oxoethoxy]phenyl}-3-methyl-1H-thieno[2,3-c]pyrazole-5-carboxamide] | 2000 | 20
CC(=O)N[C@H]1CC[C@H](NC(=O)c2cc3c(C)nn(C4CCCCC4)c3s2)CC1 [Example 80, N-[trans-4-(Acetylamino)cyclohexyl]-1-cyclohexyl-3-methyl-1H-thieno[2,3-c]pyrazole-5-carboxamide] | 2500 | 60
Cc1nn(C2CCCCC2)c2sc(C(=O)Nc3ccc(N)cc3)cc12 [Example 99, N-(4-Aminophenyl)-1-cyclohexyl-3-methyl-1H-thieno[2,3-c]pyrazole-5-carboxamide] | 5000 | 99

Now from value to compound:

IC50 [1] [nM] | IC50 [2] [nM] | SMILES
5000 | 33 | CC(=O)c1ccc(NC(=O)c2cc3c(C)nn(C4CCCCC4)c3s2)cc1 [Example 38, N-(4-Acetylphenyl)-1-cyclohexyl-3-methyl-1H-thieno[2,3-c]pyrazole-5-carboxamide]
12000 | 50 | Cc1nn(C2CCCCC2)c2sc(C(=O)Nc3ccc(C(=O)O)cc3)cc12 [Example 41, 4-{[(1-Cyclohexyl-methyl-1H-thieno[2,3-c]pyrazol-5-yl)carbonyl]-amino}benzoic acid]
3500 | 32 | CC(=O)Nc1ccc(NC(=O)c2cc3c(C)nn(C4CCCCC4)c3s2)cn1 [Example 47, N-[6-(Acetylamino)-3-pyridinyl]-1-cyclohexyl-3-methyl-1H-thieno[2,3-c]pyrazole-5-carboxamide]
4700 | 25 | CNC(=O)Cc1ccc(NC(=O)c2cc3c(C)nn(C4CCCCC4)c3s2)cc1 [Example 70]
> 30000 | 58 | CC(=O)Nc1ccc(NC(=O)c2cc3c(C)nn(C4CCCCCC4)c3s2)cc1 [Example 94, N-[4-(Acetylamino)phenyl]-1-cycloheptyl-3-methyl-1H-thieno[2,3-c]pyrazole-5-carboxamide]
> 30000 | 37 | CC(=O)Nc1ccc(NC(=O)c2cc3c(C)nn(C4CCCCC4)c3s2)cc1 [Example 100, N-[4-(Acetylamino)phenyl]-1-cyclohexyl-3-methyl-1H-thieno[2,3-c]pyrazole-5-carboxamide]
1300 | 30 | COCC(=O)Nc1ccc(NC(=O)c2cc3c(C)nn(C4CCCCC4)c3s2)cc1 [Example 101, 1-Cyclohexyl-N-{4-[(methoxyacetyl)amino]phenyl}-3-methyl-1H-thieno[2,3-c]pyrazole-5-carboxamide]
5500 | 85 | COC(=O)c1ccc(NC(=O)c2cc3c(C)nn(C4CCCCC4)c3s2)cn1 [Example 102, Methyl 5-{[(1-Cyclohexyl-3-methyl-1H-thieno[2,3-c]pyrazol-5-yl)-carbonyl]amino}-2-pyridinecarboxylate]
1500 | 58 | CNC(=O)c1ccc(NC(=O)c2cc3c(C)nn(C4CCCCC4)c3s2)cn1 [Example 104, 1-Cyclohexyl-3-methyl-N-{6-[(methylamino)carbonyl]-3-pyridinyl}-1H-thieno[2,3-c]pyrazole-5-carboxamide]
